Data from patent publication US11220482B2, “Aminopyridinemethanol compounds and their use” (UNIVERSITE AMIENS PICARDIE JULES VERNE, priority 2017, dated 2022).
Where two headings read alike, the source gives them in different places.

Columns and labels:
[1] = test system: Salmonella strains; experiment: Bacterial reverse mutation assay (Ames test), overall conclusion; format: cell-based, S. typhimurium; settings: all tested doses, absence or presence of the metabolizing mixture
Description: Five strains of S. typhimurium were used. […] An additional strain has been chosen to detect cross-linking mutagens, hydrazines and oxidative agents: TA102, which have an AT base pair at the primary reversion site. Salmonella tester strains were gifts from Prof. B. N. Ames (Berkeley, Calif., USA). They were stored at −80° C. and regularly checked for genetic markers.
Few crystals of the frozen working strains were taken with a sterile pipette, and seeded in 10 mL of nutrient broth (NB No 2, Oxoid). Strains were grown overnight at 37° C. with shaking in Nutrient Broth No. 2, with ampicillin (25 μg/mL) for TA1535, TA97a, TA98, and TA 100, or ampicillin (25 μg/mL) plus tetracyclin (2 μg/mL) for TA 102. At the end of the incubation period, 0.1 mL of each overnight culture was mixed to 0.1 mL S9 Mix or 0.1 mL phosphate-buffered saline (PBS, pH 7.4) in 5 mL plastic tubes and various volumes of the tested samples were added to the mixtures. Each experiment included triplicate plates of four tested doses. A solvent (DMSO, 10 μL) control was added to determine the spontaneous frequency of revertants (quadruple plates). Five positive controls were also included to ensure the performance of the tester strains and the S9 Mix. […] After hardening, the plates were incubated at 37° C. for 48 hours.
At the end of the incubation period, revertants were counted with a laser colony counter equipped with a bacterial enumeration program (Spiral System Instrument Inc., Bethesda, Md., USA).
The Dunnett test was performed to determine a significant difference between the mean number of induced revertants and the mean number of spontaneous revertants.

[2] = test system: S. typhimurium TA102
[3] = test system: S. typhimurium TA1535
[4] = test system: S. typhimurium TA100
[5] = test system: S. typhimurium TA98; experiment: Bacterial reverse mutation assay (Ames test)
[6] = test system: CHO-K1 cells; experiment: In vitro micronucleus assay, short-term exposure; settings: for MNC-M (mean of micronucleated cell rates): Chinese hamster, 3 h
Description: All the assays were conducted in duplicate. The CHO-K1 cells, suspended in McCoy's 5A medium, were transferred into Labteck wells at a concentration of 100,000 cells/mL, and incubated for 24 hours at 37° C. in CO2 (5%).
When the test was performed without metabolic activation, the test substances were added into cell cultures at concentrations previously defined.
When the assay was performed in the presence of metabolic activation, S9 mix metabolizing mixture was added to cell cultures at a concentration of 10%. Then the test substances were added to the cell cultures at concentrations previously defined.
After 3 hours of incubation at 37° C. in CO2 (5%), the culture medium was removed, the cells were rinsed with phosphate buffered saline (PBS), and then returned to culture in McCoy's 5A medium containing […] of cytochalasin B. After a 21-hour incubation period at 37° C., cells were rinsed with phosphate buffered saline (PBS), fixed with methanol and stained with 10% Giemsa for 20 minutes.
(§1) The analysis of results was performed under a microscope at ×1000 magnification. The antiproliferative activity of test substances was estimated by counting the number of binucleated cells relative to the number of mononucleated cells on a total of 500 cells for each dose (250 cells counted per well). The proliferation index (Cytokinesis Blocked Proliferative Index CBPI) was calculated using the following formula:
(§2) The cytostasis index (CI %), i.e. the percentage of cell replication inhibition, was calculated using the following formula: CI %−100−{100×(CBPItest material−1)/(CBPIsolvent control−1)}
(§3) The rates of micronuclei were evaluated for the presence of independent nuclear core entities in 1000 binucleated cells per well, which corresponds to 2000 cells examined by test substance dose. Micronuclei were identified as small nuclei well differentiated from cell nucleus, stained in the same manner and having a diameter less than one third of that of the cell nucleus.
(§4) Micronuclei rates obtained for different doses of test substances were compared to the negative control by a χ2 test. The assay was considered positive if: • A dose-response relationship was obtained between the rate of micronuclei and the doses tested, • At least one of these doses induced a statistically significant increase (P<0.05) in the number of micronucleated cells as compared to the negative control.

[7] = test system: S. typhimurium TA97a
[8] = test system: Plasmodium falciparum W2; experiment: Plasmodium falciparum susceptibility assay, first round (SYBR Green I); format: cell-based; settings: W2, first round, 48-h incubation, strain resistant to CQ, sensitive to MQ, read-out: IC50 (nM) Plasmodium falciparum W2 (converted)
[9] = test system: Plasmodium falciparum 3D7; experiment: as above; format: cell-based; settings: 3D7, first round, 48-h incubation, strain susceptible to CQ, decreased susceptibility to MQ, read-out: IC50 (nM) Plasmodium falciparum 3D7 (converted)
[10] = test system: CHO-K1 cells; settings: Chinese hamster, 24 h
Description: All the assays were conducted in duplicate. The CHO-K1 cells, suspended in Mac Coy's 5A medium, were transferred into Labteck wells at a concentration of 100,000 cells/mL, and incubated for 24 hours at 37° C. in CO2 (5%).
The test was performed without metabolic activation: the test substances were added into cell cultures at concentrations previously defined. […] After 24 hours of incubation at 37° C. in CO2 (5%), the culture medium was removed, the cells were rinsed with phosphate buffered saline (PBS), and then returned in culture medium containing […] of cytochalasine B. After a 24-hour incubation period at 37° C., cells were rinsed with phosphate buffered saline (PBS), fixed with methanol and stained with 10% Giemsa for 20 minutes.
as §1, §2, §3, §4

[11] = Table 18 second section, "Test without S9 mix", 0.4 μg/plate
[12] = Table 18 second section, "Test without S9 mix", 0.6 μg/plate
[13] = Table 18 second section, "Test without S9 mix", 0.8 μg/plate
[14] = Table 18 second section, "Test without S9 mix", 1 μg/plate

## CCCCCNC[C@@H](O)c1cc(-c2ccc(C(F)(F)F)cc2)nc(C(F)(F)F)c1 [Compound 1a]
[1]
  mutagenic activity in Salmonella strains (revertant rates): No significant increase in revertant rates
[2]; [11]
  Number of revertants by plate (Means ± SD), TA102: 387 ± 8^NS
[2]; [12]
  Number of revertants by plate (Means ± SD), TA102: 395 ± 9^NS
[2]; [13]
  Number of revertants by plate (Means ± SD), TA102: 379 ± 8^NS
[2]; [14]
  Number of revertants by plate (Means ± SD), TA102: 378 ± 5^NS
[2]; without S9 mix, 0.4 μg/plate
  Number of revertants by plate (Means ± SD), TA102: 319 ± 12^NS
[2]; without S9 mix, 0.6 μg/plate
  Number of revertants by plate (Means ± SD), TA102: 308 ± 10^NS
[2]; without S9 mix, 0.8 μg/plate
  Number of revertants by plate (Means ± SD), TA102: 325 ± 13^NS
[2]; without S9 mix, 1 μg/plate
  Number of revertants by plate (Means ± SD), TA102: 318 ± 10^NS
[3]; [11]
  Number of revertants by plate (Means ± SD), TA1535: 29 ± 8^NS
[3]; [12]
  Number of revertants by plate (Means ± SD), TA1535: 29 ± 9^NS
[3]; [13]
  Number of revertants by plate (Means ± SD), TA1535: 32 ± 8^NS
[3]; [14]
  Number of revertants by plate (Means ± SD), TA1535: 27 ± 4^NS
[3]; without S9 mix, 0.4 μg/plate
  Number of revertants by plate (Means ± SD), TA1535: 25 ± 6^NS
[3]; without S9 mix, 0.6 μg/plate
  Number of revertants by plate (Means ± SD), TA1535: 30 ± 5^NS
[3]; without S9 mix, 0.8 μg/plate
  Number of revertants by plate (Means ± SD), TA1535: 31 ± 4^NS
[3]; without S9 mix, 1 μg/plate
  Number of revertants by plate (Means ± SD), TA1535: 26 ± 6^NS
[4]; [11]
  Number of revertants by plate (Means ± SD), TA100: 185 ± 8
[4]; [12]
  Number of revertants by plate (Means ± SD), TA100: 183 ± 7^NS
[4]; [13]
  Number of revertants by plate (Means ± SD), TA100: 172 ± 6^NS
[4]; [14]
  Number of revertants by plate (Means ± SD), TA100: 177 ± 4^NS
[4]; without S9 mix, 0.4 μg/plate
  Number of revertants by plate (Means ± SD), TA100: 189 ± 8
[4]; without S9 mix, 0.6 μg/plate
  Number of revertants by plate (Means ± SD), TA100: 192 ± 9^NS
[4]; without S9 mix, 0.8 μg/plate
  Number of revertants by plate (Means ± SD), TA100: 215 ± 13^NS
[4]; without S9 mix, 1 μg/plate
  Number of revertants by plate (Means ± SD), TA100: 196 ± 14^NS
[5]; [11]
  Number of revertants by plate (Means ± SD), TA98: 28 ± 3^NS
[5]; [12]
  Number of revertants by plate (Means ± SD), TA98: 25 ± 5^NS
[5]; [13]
  Number of revertants by plate (Means ± SD), TA98: 31 ± 6^NS
[5]; [14]
  Number of revertants by plate (Means ± SD), TA98: 25 ± 3^NS
[5]; without S9 mix, 0.4 μg/plate
  Number of revertants by plate (Means ± SD), TA98: 30 ± 4^NS
[5]; without S9 mix, 0.6 μg/plate
  Number of revertants by plate (Means ± SD), TA98: 28 ± 8^NS
[5]; without S9 mix, 0.8 μg/plate
  Number of revertants by plate (Means ± SD), TA98: 31 ± 6^NS
[5]; without S9 mix, 1 μg/plate
  Number of revertants by plate (Means ± SD), TA98: 24 ± 5^NS
[6]
  in vitro micronucleus assay result (clastogenic and/or aneugenic activities): negative results
[6]; 10 μM
  MNC-M (mean of micronucleated cell rates): 9.5 ± 0.7 ‰
[6]; 50 μM
  MNC-M (mean of micronucleated cell rates): 10 ± 1.4 ‰
[6]; 100 μM
  MNC-M (mean of micronucleated cell rates): 11 ± 1.4 ‰
[7]; [11]
  Number of revertants by plate (Means ± SD), TA97a: 128 ± 8^NS
[7]; [12]
  Number of revertants by plate (Means ± SD), TA97a: 133 ± 4^NS
[7]; [13]
  Number of revertants by plate (Means ± SD), TA97a: 147 ± 10^NS
[7]; [14]
  Number of revertants by plate (Means ± SD), TA97a: 151 ± 6^NS
[7]; without S9 mix, 0.4 μg/plate
  Number of revertants by plate (Means ± SD), TA97a: 161 ± 8^NS
[7]; without S9 mix, 0.6 μg/plate
  Number of revertants by plate (Means ± SD), TA97a: 155 ± 6^NS
[7]; without S9 mix, 0.8 μg/plate
  Number of revertants by plate (Means ± SD), TA97a: 159 ± 8^NS
[7]; without S9 mix, 1 μg/plate
  Number of revertants by plate (Means ± SD), TA97a: 154 ± 9^NS
[8]
  IC50: 8.6 ± 1 nM
[9]
  IC50: 52.4 ± 1.7 nM
[10]; 5 μM
  BI (binucleated cells): 417
  CBPI (Cytokinesis-Blocked Proliferative Index): 1.83
  CI % (cytostasis index): 8%
  MNC1 (micronucleated cell rate): 10 ‰
  MNC2 (micronucleated cell rate): 9 ‰
  MNC-M (mean of micronucleated cell rates): 9.5 ± 0.7 ‰
  MONO (mononucleated cells): 83
[10]; 10 μM
  BI (binucleated cells): 323
  CBPI (Cytokinesis-Blocked Proliferative Index): 1.64
  CI % (cytostasis index): 29%
  MNC1 (micronucleated cell rate): 9 ‰
  MNC2 (micronucleated cell rate): 11 ‰
  MNC-M (mean of micronucleated cell rates): 10 ± 1.4 ‰
  MONO (mononucleated cells): 177
[10]; 50 μM
  BI (binucleated cells): 226
  CBPI (Cytokinesis-Blocked Proliferative Index): 1.46
  CI % (cytostasis index): 52%
  MNC1 (micronucleated cell rate): 10 ‰
  MNC2 (micronucleated cell rate): 12 ‰
  MNC-M (mean of micronucleated cell rates): 11 ± 1.4 ‰
  MONO (mononucleated cells): 274
